These results are taken from BindingDB's records for doi:10.1016/j.jmb.2006.12.004 (University of Marburg, 2007).

The target in this experiment is Aldo-keto reductase family 1 member B1 (Homo sapiens, UniProt P15121). In words: Enzyme Inhibition Assay. Particulars: pH 6.2; 25 °C. On the procedure:
The in vitro inhibitory activity of the candidate molecules was determined by recording the decrease of the NADPH absorbance upon enzymatic reduction of […]. The absorbance at 340 nm was monitored with a BMG plate reader. The program GraFit (Version 4.0) was used for fitting the IC50 values.
On to `O=C(O)CCCc1nc(-c2cccc([N+](=O)[O-])c2)[n-][o+]1` [Ligand 1], for which half-maximal inhibition (IC50) was put at 0.53 µM.
With `O=C(O)CSc1nnc(-c2ccc([N+](=O)[O-])o2)o1` [2-{[5-(5-nitrofuran-2-yl)-1,3,4-oxadiazol-2-yl]sulfanyl}acetic acid] the figure was 4.1 µM; with `O=C(O)CCCc1nc(-c2ccccn2)no1` [4-[3-(pyridin-2-yl)-1,2,4-oxadiazol-5-yl]butanoic acid], 12.4 µM; with `O=C(O)CCCc1nc(-c2ccc(Cl)cc2)no1` [Ligand 8], 17.7 µM.
